{
  "source": "patent US20210161897A1",
  "about": "“EPIDERMAL GROWTH FACTOR RECEPTOR TYROSINE KINASE INHIBITORS FOR THE TREATMENT OF CANCER” (AstraZeneca AB, priority 2019, published 2021)",
  "tested_on": "PC9 xenograft tumours",
  "test": "PC9 xenograft antitumour efficacy and regrowth",
  "format": "in vivo, female SCID mice",
  "method": "PC9 xenograft tumours were established by subcutaneous implantation of 5×10^6 cells per animal, in 100 μl of cell suspension including 50% matrigel, into the dorsal left flank of female SCID mice. All mice were older than 6 weeks at the time of cell implant. Tumor growth was monitored twice weekly by bilateral calliper measurements and tumour volume calculated using elliptical formula (pi/6×width×width×length).\nMice were randomized into vehicle or treatment groups with approximate mean start size of 0.2 cm3. Randomization for animal studies was based on initial tumour volumes to ensure equal distribution across groups. Mice were dosed daily by oral gavage with vehicle or 25 mg/kg osimertinib or once weekly by intravenous with 25 mg/kg AZD2811 or with the combination of osimertinib and AZD2811. Note that all treatments were stopped on day 28. However, tumour growth was followed for approximately 200 additional days.",
  "data": [
    {"compound": "C=CC(=O)Nc1cc(Nc2nccc(-c3cn(C)c4ccccc34)n2)c(OC)cc1N(C)CCN(C)C", "note": "[osimertinib, N-(2-{2-dimethylaminoethyl-methylamino}-4-methoxy-5-{[4-(1-methylindol-3-yl)pyrimidin-2-yl]amino}phenyl) prop-2-enamide]", "values": [
      {"measurement": "tumour shrinkage during 4-week treatment", "setting": "monotherapy, 25 mg/kg, osimertinib daily oral, AZD2811 once weekly intravenous", "value": "complete shrinkage"},
      {"measurement": "time at which tumour regrowth was observed", "setting": "osimertinib 25 mg/kg daily oral gavage for 28 days, then treatment stopped", "value": "around 80 days"}
    ]}
  ]
}
